Patent US5935973A, “Heterocyclcarboxamide derivatives and their use as therapeutic agents” (Knoll Aktiengesellschaft, priority 1995, dated 1999)

Molecular target: T1, α2A-adrenoceptors (Homo sapiens, UniProt P08913)
T1 construct: Human cerebral cortex obtained at post-mortem; from tissue; host or cells: human post-mortem cerebral cortex membranes
T1 sequence (P08913 1-465): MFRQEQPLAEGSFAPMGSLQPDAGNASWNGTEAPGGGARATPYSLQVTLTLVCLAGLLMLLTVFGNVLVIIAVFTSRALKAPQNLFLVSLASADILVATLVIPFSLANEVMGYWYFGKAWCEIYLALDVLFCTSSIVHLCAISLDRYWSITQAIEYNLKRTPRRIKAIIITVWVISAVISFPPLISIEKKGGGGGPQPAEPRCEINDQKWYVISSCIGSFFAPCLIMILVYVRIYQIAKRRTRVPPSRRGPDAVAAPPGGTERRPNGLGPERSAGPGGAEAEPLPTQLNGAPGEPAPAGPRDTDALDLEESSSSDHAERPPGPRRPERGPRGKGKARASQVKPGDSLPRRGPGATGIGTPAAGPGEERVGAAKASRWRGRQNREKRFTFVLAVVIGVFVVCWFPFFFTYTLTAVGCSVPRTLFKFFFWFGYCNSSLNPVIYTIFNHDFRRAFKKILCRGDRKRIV
Assay: inhibition of tritiated RX 821002 binding to α2A-adrenoceptors in human cerebral cortex
Settings: at 10^-6 M, tritiated RX 821002, read-out: % displacement of radio ligand, α2A
Experimental: Human cerebral cortex obtained at post-mortem was homogenised in ice-cold 0.25M sucrose (1:30 w/v) and centrifuged at 1,000 g at 4° C. for 12 minutes. The supernatant was stored on ice and the pellet was rehomogenised in 0.25M sucrose (1:15 w/v) and centrifuged at 850 g at 4° C. for 12 minutes. Combined supernatants were diluted with 5mM Tris-HCl (pH 7.5) containing 5 mM ethylenediamine tetraacetic acid (EDTA), readjusted to pH 7.5 (at 25° C.) with 1M sodium hydroxide to 1:80 w/v, and centrifuged at 11,000 g at 4° C. for 10 minutes. The resulting pellet was resuspended in 50 mM Tris-HCl (pH 7.5) containing 5.68 mM L-ascorbic acid and 0.5 mM EDTA, readjusted to pH 7.5 (at 25° C.) with 1 M sodium hydroxide to 1:80 w/v, and centrifuged at 11,000 g for 10 minutes. The pellet was stored at -80° C. On the day of the assay the pellet was thawed, resuspended in 50 mM Tris-HCl (pH 7.5) containing 5.68 mM L-ascorbic acid and 5 mM EDTA to 1:80 w/v and centrifuged at 11,000 g for 10 minutes. The final pellet was resuspended in 50 mM Tris-HCl (pH 7.5) containing 5.68 mM L-ascorbic acid and 5 mM EDTA (equivalent to 25 mg wet weight of tissue/ml).
Aliquots (400 μl; equivalent to 10 mg wet weight of tissue/tube) of this suspension were added to tubes containing the ligand (50 μl; 0.2 nM) and distilled water (50 μl; total binding) or phentolamine (50 μl; 50 μM; non-specific binding) or test compound (50 μl; at a single concentration of 10^-6 M or at 10 concentrations ranging from 10^-11 -10^-3 M). The ligand was tritiated RX 821002 (2-(2-methoxy-1,4-[6,7(n)-^3 H]benzodioxan-2-yl)-2-imidazoline) and the mixture was incubated at 0° C. for 75 minutes before the incubation was terminated by rapid filtration.
The filters were washed with ice-cold Tris-HCl buffer and dried. The filters were punched out into vials, scintillation fluid added and radioactivity determined by liquid scintillation counting. The percentage displacement of specific binding of the tritiated ligand was calculated for the single concentration (10^-6 M) of test compound. Displacement curves were then produced for those compounds which displaced ≥50% of specific binding of the tritiated ligand at 10^-6 M using a range of concentrations of the compound. The concentration which gave 50% inhibition of specific binding (IC50)was obtained from the curve. The inhibition coefficient Ki was then calculated using the formula [formula] in which [ligand] is the concentration of the tritiated ligand used and KD is the equilibrium dissociation constant for the ligand.

SMILES	inhibition at 1 µM
O=C(NCC1CCN(CC2COc3ccccc3O2)CC1)c1ccccn1 (stereo not drawn) [Example 6, N-{[1-(1,4-benzodioxan-2-ylmethyl)-4-piperidyl]methyl}pyridine-2-carboxamide]	100%
O=C(NCC1CCN(CC2COc3ccccc3O2)CC1)c1cccc2cccnc12 (stereo not drawn) [Example 8, N-{[1-(1,4-benzodioxan-2-ylmethyl)-4-piperidyl]methyl}quinoline-8-carboxamide]	99%
Nc1ncccc1C(=O)NCC1CCN(CC2COc3ccc(F)cc3O2)CC1 (stereo not drawn) [Example 10, 2-amino-N-{[1-(7-fluoro-1,4-benzodioxan-2-ylmethyl)-4-piperidyl]methyl}pyridine-3-carboxamide]	100%
COc1cccc2c1OC(CN1CCC(CNC(=O)c3cccnc3N)CC1)CO2 (stereo not drawn) [Example 11, 2-amino-N-{[1-(8-methoxy-1,4-benzodioxan-2-ylmethyl)-4-piperidyl]methyl}pyridine-3-carboxamide]	99%
Cc1cccc2c1O[C@@H](CN1CCC(CNC(=O)c3cccnc3N)CC1)CO2 [Example 13, (S)-2-amino-N-{[1-(8-methyl-1,4-benzodioxan-2-ylmethyl)-4-piperidyl]methyl}pyridine-3-carboxamide]	100%
Nc1ncccc1C(=O)NCC1CCN(C[C@H]2COc3ccccc3O2)CC1 [Example 15, (S)-2-amino-N-{[1-(1,4-benzodioxan-2-ylmethyl)-4-piperidyl]methyl}pyridine-3-carboxamide]	100%
Nc1ccsc1C(=O)NCC1CCN(C[C@H]2COc3ccc(Cl)cc3O2)CC1 [Example 17, (S)-3-amino-N-{[1-(7-chloro-1,4-benzodioxan-2-ylmethyl)-4-piperidyl]methyl}thiophene-2-carboxamide]	99%
Nc1ncccc1C(=O)NCC1CCN(C[C@H]2COc3cccc(C(F)(F)F)c3O2)CC1 [Example 20, (S)-2-amino-N-{[1-(8-trifluoromethyl-1,4-benzodioxan-2-ylmethyl)-4-piperidyl]methyl}pyridine-3-carboxamide]	101%
O=C(NCC1CCN(C[C@H]2COc3ccc(Cl)cc3O2)CC1)c1cccnc1 [Example 22, (S)-N-{[1-(7-chloro-1,4-benzodioxan-2-ylmethyl)-4-piperidyl]methyl}pyridine-3-carboxamide]	99%

Now from value to compound:

inhibition at 1 µM	SMILES
98%	Cc1ccc2c(c1)O[C@@H](CN1CCC(CNC(=O)c3cccnc3N)CC1)CO2 [Example 5, (S)-2-amino-N-{[1-(7-methyl-1,4-benzodioxan-2-ylmethyl)-4-piperidyl]methyl}pyridine-3-carboxamide]
99%	Cc1ncccc1C(=O)NCC1CCN(C[C@H]2COc3cccc(Cl)c3O2)CC1 [Example 9, (S)-N-{[1-(8-chloro-1,4-benzodioxan-2-ylmethyl)-4-piperidyl]methyl}-2-methylpyridine-3-carboxamide]
99%	O=C(NCC1CCN(C[C@H]2COc3ccc(Cl)cc3O2)CC1)c1ccccn1 [Example 12, (S)-N-{[1-(7-chloro-1,4-benzodioxan-2-ylmethyl)-4-piperidyl]methyl}pyridine-2-carboxamide]
100%	Nc1ccsc1C(=O)NCC1CCN(CC2COc3ccccc3O2)CC1 (stereo not drawn) [Example 16, 3-amino-N-{[1-(1,4-benzodioxan-2-ylmethyl)-4-piperidyl]methyl}thiophene-2-carboxamide]
98%	O=C(NCC1CCN(C[C@H]2COc3ccc(Cl)cc3O2)CC1)c1cccc2cccnc12 [Example 23, (S)-N-{[1-(7-chloro-1,4-benzodioxan-2-ylmethyl)-4-piperidyl]methyl}quinoline-8-carboxamide]

Same assay, conditions: tritiated RX 821002 0.2 nM, 0° C., 75 min

Ki	SMILES
2.8 nM	COc1ccc2c(c1)O[C@@H](CN1CCC(CNC(=O)c3cccnc3N)CC1)CO2 [Example 7, (S)-2-amino-N{[1-(7-methoxy-1,4-benzodioxan-2-ylmethyl)-4-piperidyl]methyl}-pyridine-3-carboxamide]
